According to patent publication US11903386B2, “Strigolactone analogs and their usage in plant control” (King Abdullah University of Science and Technology, priority 2016, dated 2024):
“Also recorded” adds a separate entry of the source. Read-outs that look alike come from different tables or passages of the source.

Assays:
OsD14 = molecular target: T1, OsD14 (Oryza sativa subsp. japonica, UniProt Q10QA5); assay: YLG (Yoshimulactone Green) competitive hydrolysis assay; format: biochemical, rice
T1 construct: made in house; host or cells: E. coli BL21 (DE3)
T1 sequence (Q10QA5 1-318): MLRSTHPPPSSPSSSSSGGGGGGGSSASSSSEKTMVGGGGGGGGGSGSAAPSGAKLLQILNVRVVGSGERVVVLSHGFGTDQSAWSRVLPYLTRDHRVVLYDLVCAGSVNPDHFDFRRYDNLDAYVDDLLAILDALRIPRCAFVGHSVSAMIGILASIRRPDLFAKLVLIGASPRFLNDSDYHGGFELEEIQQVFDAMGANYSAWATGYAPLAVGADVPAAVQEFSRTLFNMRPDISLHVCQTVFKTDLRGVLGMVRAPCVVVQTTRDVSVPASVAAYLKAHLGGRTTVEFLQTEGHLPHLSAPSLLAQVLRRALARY
From the text: (§1) Striga hermonthica ShHTL7 cDNA, GenBank accession KR013127 was kindly provided by Prof. Tadao Asami (The University of Tokyo, Japan). Arabidopsis thaliana D14 (AtD14) cDNA, GenBank accession AY097402 was synthesized and cloned into pUC57 (GenScript). ShHTL7 and OsD14 cDNAs were amplified by RT-PCR using the primers shown in Table 2, digested with BamHI and XhoI, and ligated into BamHI/XhoI digested pGEX-6P-1 expression vector (GE Healthcare). Integrity of plasmids was confirmed by sequencing (KAUST Bioscience Core Lab). The plasmids were then transformed into E. coli BL21 (DE3) cells. The cells were grown in LB broth containing ampicillin ([…]), incubated at 37° C. until OD600 of 0.6 and induced with 0.1 mM isopropyl-β-D-thiogalactopyranoside (IPTG) at 16° C. for 16 h. Harvested cells were re-suspended in lysis buffer: 50 mM Tris-HCl (pH 8.0), 200 mM NaCl, 0.5% Tween-20 and 2 mM dithiothreitol (DTT). After sonication on ice for 10 mins, the lysate was centrifuged at 25,000 rpm for 30 min at 4° C. Supernatant was allowed to bind to glutathione-sepharose beads (GE Healthcare) for 2 h at 4° C., washed 3 times with buffer (50 mM Tris-HCl (pH 8.0), 200 mM NaCl, 2 mM DTT), and eluted by cleaving GST moiety with PreScission™ Protease (GE Healthcare) at 4° C. overnight. Eluted protein was further purified by gel filtration using HiLoad 16/60 Superdex200 prep grade column (GE Healthcare) on an AKTA prime system (GE Healthcare) in gel filtration buffer (10 mM HEPES pH 7.5, 50 mM KCl and 2 mM DTT). Protein eluted as a sharp single peak and purity was judged by 4-15% SDS-PAGE (Bio-Rad). Purified protein was concentrated using an Amicon 10K filter unit (Merck Millipore) and stored at −80° C. until use. Similar expression and purification protocol was followed for OsD14 protein, except that OsD14 was eluted from Glutathione resins using 0.2 mM reduced Glutathione (Sigma) without cutting GST tag.
In vitro YLG hydrolysis assays were performed as described by Tsuchiya et al., 2015. Hydrolysis assays were carried out using 0.15 μM of recombinant protein OsD14 in a reaction buffer (100 mM PBS buffer, pH 7.3) with 0.1% dimethylsulfoxide (DMSO) at a 300 μl volume on a 96-well black plate (Thermo). For competitive assays, (±) GR24 and (±) MPs at range between 0.03 to 10 μM (or 100 μM) were co-incubated with 0.3 μM of YLG and reacted at 30° C. incubator for 15 min. Fluorescent intensity was measured with excitation at 485 nm and detected at 535 nm. IC50 values were calculated online (http://www.ic50.tk/index.html). Later, values were converted to the existing conditions when treated by 1.0 μM of recombinant proteins.

ShHTL7 = molecular target: T2, ShHTL7 (Striga hermonthica, UniProt A0A0M3PNA2); assay: Intrinsic tryptophan fluorescence assay; format: binding; conditions: ShHTL7 10 μM, mean±SE (n=3); read-out: Kd, affinity of ShHTL7
T2 sequence (A0A0M3PNA2 1-271): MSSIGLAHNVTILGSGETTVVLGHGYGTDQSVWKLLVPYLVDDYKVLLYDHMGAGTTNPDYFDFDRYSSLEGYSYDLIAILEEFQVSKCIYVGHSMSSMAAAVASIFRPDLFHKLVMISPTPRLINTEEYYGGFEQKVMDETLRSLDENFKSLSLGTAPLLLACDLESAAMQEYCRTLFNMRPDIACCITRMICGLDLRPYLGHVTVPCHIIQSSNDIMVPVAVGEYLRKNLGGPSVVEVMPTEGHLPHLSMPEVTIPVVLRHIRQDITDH
From the text: as §1
ShHTL7 tryptophans were excited at 280 nm and […] emission intensity was measured at 333 nm. ShHTL7 (10 μM) was incubated at various dilutions (0.2, 0.4, 0.8, 1.6, 3.12, 6.25, 12.5, 25 and 50 μM) of GR24 and MPs for 30 minutes at room temperature before measurement. Each concentration point was measured in triplicates. Emitted fluorescence was monitored using spectraMaxi3 (Molecular Devices) plate reader in 96-wells black plates. Changes in tryptophan fluorescence intensity occur due to conformational changes in protein when it is bound to ligand; differences in fluorescence intensity were recorded and analyzed. Data were normalized and dissociation coefficient (Kd) values were calculated by fitting to a binding saturation single-site model with GraphPad (PRISM 6).

rice d10 mutant = assay: Rice micro tillering bioassay, d10 mutant; format: in vivo; conditions: comparison between compounds
Procedure: Rice seeds (WT, d3, d10) were surface-sterilized by washing with 70% ethanol for 1 min and then with 2.5% sodium hypochlorite for 15 min. Seeds were then rinsed thoroughly with sterile MilliQ water and incubated in water for 2 days at 30° C. in the dark. Pre-germinated seeds were transferred to filter papers containing ½ strength MS medium in 90 mm petri dishes and incubated at 30° C. under fluorescent white light (130-180 μM m^−2 s^−1) for one week. Seven day-old seedlings were transferred to 50 ml falcon tubes (one seedling per tube) containing modified half-strength Hoagland nutrient solution and grown in greenhouse. Plants were treated with MPs at 2.5 μM-2.5×10-7 μM, using GR24 as positive control. The compounds were applied six times, twice a week. Number of tillers per plant, plant height and fresh biomass were measured at final harvest.
Statistical analyses were carried out using statistical software package R (version 3.2.2). Dose-response curves and Half Maximum Effective Concentrations (EC50) were calculated to determine optimum amount of MPs. Synthetic strigolactone analog GR24 was used as reference to estimate efficacy of selected compounds. EC50 and estimated response were calculated using drc package (https://cran.r390 project.org/web/packages/drc/) with a Four Parameter Logistic Curve (Dose Response Curve) (Ritz and Streibig, 2005).

Compound	IC50 (OsD14; with SE (n=3), read-out: IC50, competitive inhibition of OsD14 mediated YLG hydrolysis) [µM]	Kd (ShHTL7) [µM]	Relative activity in inhibiting rice tillering (d10) (rice d10 mutant)	IC50 (OsD14) [µM]
COC(=O)/C(=C/OC1C=C(C)C(=O)O1)c1ccc([N+](=O)[O-])cc1 (racemic) [MP1, (E)-methyl 3-(4-methyl-5-oxo-2,5-dihydrofuran-2-yloxy)-2-(4-nitrophenyl)acrylate]	2.41 ± 0.175	0.72 ± 0.55	weaker than GR24	
COC(=O)/C(=C/OC1C=C(C)C(=O)O1)c1ccccc1 (racemic) [MP3, (E)-methyl 3-(4-methyl-5-oxo-2,5-dihydrofuran-2-yloxy)-2-phenylacrylate]		10.1 ± 5.1	the most active compound; also recorded: most pronounced inhibitory effect on tillering	10.1 ± 2.94
COC(=O)/C(=C/OC1C=C(C)C(=O)O1)c1ccc(Cl)cc1 (stereo not drawn) [MP7]		1.15 ± 0.31	more active than GR24	4.46 ± 0.8
